This note sets out measurements from patent EP0075629A1, “Imidazole derivatives, their preparation, and their pharmaceutical compositions” (Sumitomo Chemical Industries Ltd., priority 1981, dated 1983).

This assay relates to Lewis lung carcinoma (solid). The experiment in a line: Antitumor effect on mouse experimental tumors (tumor inhibitory ratio by tumor weight). The class given is in vivo. Conditions: Dose 100 mg/kg, route i.p., schedule 5q2d (days 1, 3, 5, 7 and 9); tumors removed and weighed at day 13; BDF1 male mice. As for the experimental part: The antitumor activities of compounds of the present invention were estimated according to the methods described in "Cancer chemotheraphy reports" Part 3, Vol. 3, (No. 2) p.13 (1972).
BDF1 male mice, 5 weeks old, weighing between 18 and 22 grams were used. Each test group was composed of 6 to 7 mice. Two million cells of Lewis lung carcinoma were injected in the hind leg. The drug was administered intraperitoneally at days 1, 3, 5, 7 and 9 (or 5q2d).
After killing the mice at day 13, tumors were removed and weighed. The tumor inhibitory ratio was calculated according to the following formula: [formula]
As to `COc1ccc(C(=O)Oc2nc[nH]c2C(N)=O)cc1OC` [5-Carbamoyl-1H-imidazole-4-yl 3',4'-dimethoxy-benzoate], the “Inhibition Ratio (%) Lewis lung carcinoma (solid)” value amounted to 83.1%. The value for `COc1cc(C(=O)Oc2nc[nH]c2C(N)=O)ccc1C` [5-Carbamoyl-1H-imidazole-4-yl 3'-methoxy-4'-methylbenzoate] was 89.4%; that for `NC(=O)c1[nH]cnc1OC(=O)C=Cc1ccc(Cl)cc1` [5-Carbamoyl-1H-imidazole-4-yl p-chlorocinnamate] was 90%; that for `NC(=O)c1[nH]cnc1OC(=O)C=Cc1cccc([N+](=O)[O-])c1` [5-Carbamoyl-1H-imidazole-4-yl m-nitrocinnamate] was 90%. The value for `NC(=O)c1[nH]cnc1OC(=O)c1ccc(-c2ccccc2)cc1` [5-Carbamoyl-1H-imidazole-4-yl p-phenylbenzoate] was 77.0%.
